Calls of active or inactive are those of the source. No cut-off for these calls is given here.
Experiments:
[1] = target: T1, Mitogen-activated protein kinase kinase kinase 14 (Homo sapiens, UniProt Q99558); experiment: Inhibition of NIK (unknown origin) incubated 30 to 60 mins by ADP-Glo Kinase
[2] = target: T1, Mitogen-activated protein kinase kinase kinase 14; experiment: Inhibition of NIK (unknown origin) expressed in COS-7 cells co-expressing NF-KappaB luciferase reporter assessed as suppression of luciferase reporter measured after 24 by beta-Gal activity assay; assay type: cell-based
Macrophage = experiment: Anti-inflammatory activity in mouse macrophages extracted from abdominal activity assessed as inhibition of LPS-induced nitric oxide production at 1 uM measured after 22 hrs by Griess reagent assay relative to control; assay type: functional, cell-based
RAW264.7 [3] = experiment: Cytotoxicity against mouse RAW264.7 cells assessed as cell viability at 1 uM by CCK8 assay; assay type: toxicity, cell-based; conditions: raw264.7, 1 µM
COS-7 [4] = experiment: Cytotoxicity against African green monkey COS-7 cells assessed as cell viability at 1 uM by CCK8 assay; assay type: toxicity, cell-based; conditions: chlorocebus aethiops, cos-7, 1 µM
RAW264.7 [5] = experiment: Cytotoxicity against mouse RAW264.7 cells assessed as cell viability at 5 uM by CCK8 assay; assay type: toxicity, cell-based; conditions: raw264.7, 5 µM
COS-7 [6] = experiment: Cytotoxicity against African green monkey COS-7 cells assessed as cell viability at 5 uM by CCK8 assay; assay type: toxicity, cell-based; conditions: chlorocebus aethiops, cos-7, 5 µM
[7] = target: AMP-activated protein kinase (AMPK) alpha-1/beta-1/gamma-1 (Homo sapiens, UniProt P54619+Q13131+Q9Y478); experiment: Inhibition of AMPKalpha1/beta1/gamma1 (unknown origin) by ADP-Glo Kinase assay; assay type: protein-complex assay
Chain of AMP-activated protein kinase (AMPK) alpha-1/beta-1/gamma-1 (P54619 whole entry): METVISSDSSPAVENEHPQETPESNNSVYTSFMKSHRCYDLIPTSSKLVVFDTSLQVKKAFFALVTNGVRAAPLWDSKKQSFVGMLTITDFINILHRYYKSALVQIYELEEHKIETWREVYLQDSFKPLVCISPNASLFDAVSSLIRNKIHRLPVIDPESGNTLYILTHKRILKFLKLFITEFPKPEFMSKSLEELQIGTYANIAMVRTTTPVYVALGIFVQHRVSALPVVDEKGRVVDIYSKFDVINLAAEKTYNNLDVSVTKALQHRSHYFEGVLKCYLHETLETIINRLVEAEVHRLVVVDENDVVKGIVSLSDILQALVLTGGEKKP
Chain of AMP-activated protein kinase (AMPK) alpha-1/beta-1/gamma-1 (Q9Y478 whole entry): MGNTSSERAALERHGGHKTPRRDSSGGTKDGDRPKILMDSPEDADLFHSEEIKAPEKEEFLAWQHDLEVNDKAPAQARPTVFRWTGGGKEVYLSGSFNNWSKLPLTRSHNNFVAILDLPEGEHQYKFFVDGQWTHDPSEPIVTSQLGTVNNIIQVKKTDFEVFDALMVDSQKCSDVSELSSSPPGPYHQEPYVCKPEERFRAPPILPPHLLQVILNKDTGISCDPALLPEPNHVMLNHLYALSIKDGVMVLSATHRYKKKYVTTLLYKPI
Chain of AMP-activated protein kinase (AMPK) alpha-1/beta-1/gamma-1 (Q13131 whole entry): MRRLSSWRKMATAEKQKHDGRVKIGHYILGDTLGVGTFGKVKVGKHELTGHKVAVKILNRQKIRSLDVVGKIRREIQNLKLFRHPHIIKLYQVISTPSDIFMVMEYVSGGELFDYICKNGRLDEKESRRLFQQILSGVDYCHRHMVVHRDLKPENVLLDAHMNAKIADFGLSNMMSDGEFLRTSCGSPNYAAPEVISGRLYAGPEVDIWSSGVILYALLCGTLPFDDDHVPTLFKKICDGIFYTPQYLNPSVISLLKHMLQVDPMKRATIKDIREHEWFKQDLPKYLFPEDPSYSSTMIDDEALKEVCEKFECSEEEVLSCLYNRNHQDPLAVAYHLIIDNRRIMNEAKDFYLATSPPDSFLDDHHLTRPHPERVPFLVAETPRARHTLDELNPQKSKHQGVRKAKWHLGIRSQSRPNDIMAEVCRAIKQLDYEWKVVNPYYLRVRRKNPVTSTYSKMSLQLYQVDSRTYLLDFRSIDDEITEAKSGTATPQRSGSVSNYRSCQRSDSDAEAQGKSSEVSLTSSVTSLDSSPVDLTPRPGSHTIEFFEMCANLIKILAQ

[8] = target: Mitogen-activated protein kinase 8 (Homo sapiens, UniProt P45983); experiment: Inhibition of JNK1 (unknown origin) by ADP-Glo Kinase assay
Chain of Mitogen-activated protein kinase 8 (P45983 whole entry): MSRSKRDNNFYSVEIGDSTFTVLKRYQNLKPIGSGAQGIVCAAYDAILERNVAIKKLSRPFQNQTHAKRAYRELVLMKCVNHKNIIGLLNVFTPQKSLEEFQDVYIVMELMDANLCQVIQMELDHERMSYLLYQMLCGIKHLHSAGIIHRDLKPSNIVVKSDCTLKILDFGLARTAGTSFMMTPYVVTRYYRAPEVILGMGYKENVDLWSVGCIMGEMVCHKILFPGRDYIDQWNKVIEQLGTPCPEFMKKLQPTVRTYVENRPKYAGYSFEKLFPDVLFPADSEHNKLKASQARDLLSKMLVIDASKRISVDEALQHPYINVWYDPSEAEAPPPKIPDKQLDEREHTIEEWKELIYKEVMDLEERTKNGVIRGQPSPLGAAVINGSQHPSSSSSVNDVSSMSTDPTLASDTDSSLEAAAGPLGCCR

RAW264.7 [9] = experiment: Anti-inflammatory activity in mouse RAW264.7 cells assessed as suppression of LPS/CD40-induced TNFalpha secretion at 5 uM pretreated for 2 hrs followed stimulated with LPS/CD40 for 22 hrs by ELISA; assay type: functional, cell-based; conditions: time 24.0 hrs
RAW264.7 [10] = experiment: Anti-inflammatory activity in mouse RAW264.7 cells assessed as suppression of LPS/CD40-induced IL-6 secretion at 5 uM pretreated for 2 hrs followed stimulated with LPS/CD40 for 22 hrs by ELISA; assay type: functional, cell-based; conditions: time 24.0 hrs
RAW264.7 [11] = experiment: Anti-inflammatory activity in mouse RAW264.7 cells assessed as suppression of LPS/CD40-induced IL-1beta secretion at 5 uM pretreated for 2 hrs followed stimulated with LPS/CD40 for 22 hrs by ELISA; assay type: functional, cell-based; conditions: time 24.0 hrs
[12] = Metabolic stability in mouse liver microsomes assessed as half life at 1 uM measured upto 60 mins by LC-MS/MS analysis; assay type: ADME, Microsome
[13] = Metabolic stability in rat liver microsomes assessed as half life at 1 uM measured upto 60 mins by LC-MS/MS analysis; assay type: ADME, Microsome
[14] = Metabolic stability in mouse liver microsomes assessed as intrinsic clearance at 1 uM measured upto 60 mins by LC-MS/MS analysis; assay type: ADME, Microsome; conditions: read-out: CLH
[15] = Metabolic stability in rat liver microsomes assessed as intrinsic clearance at 1 uM measured upto 60 mins by LC-MS/MS analysis; assay type: ADME, Microsome; conditions: read-out: CLH
[16] = AUClast in C57BL/6J mouse at 10 mg/kg, iv measured upto 24 hrs by LC-MS/MS analysis; assay type: ADME, organism-based; conditions: in vivo
[17] = AUCinf in C57BL/6J mouse at 10 mg/kg, iv measured upto 24 hrs by LC-MS/MS analysis; assay type: ADME, organism-based; conditions: in vivo
[18] = Half life in C57BL/6J mouse at 10 mg/kg, iv measured upto 24 hrs by LC-MS/MS analysis; assay type: ADME, organism-based; conditions: in vivo
[19] = Initial plasma concentration in C57BL/6J mouse at 10 mg/kg, iv measured upto 24 hrs by LC-MS/MS analysis; assay type: ADME, organism-based
[20] = Clearance in C57BL/6J mouse at 10 mg/kg, iv measured upto 24 hrs by LC-MS/MS analysis; assay type: ADME, organism-based; conditions: in vivo
[21] = AUClast in C57BL/6J mouse at 10 mg/kg, po measured upto 24 hrs by LC-MS/MS analysis; assay type: ADME, organism-based; conditions: in vivo
[22] = AUCinf in C57BL/6J mouse at 10 mg/kg, po measured upto 24 hrs by LC-MS/MS analysis; assay type: ADME, organism-based; conditions: in vivo
[23] = Half life in C57BL/6J mouse at 10 mg/kg, po measured upto 24 hrs by LC-MS/MS analysis; assay type: ADME, organism-based; conditions: in vivo
[24] = Cmax in C57BL/6J mouse at 10 mg/kg, po measured upto 24 hrs by LC-MS/MS analysis; assay type: ADME, organism-based; conditions: in vivo
[25] = Tmax in C57BL/6J mouse at 10 mg/kg, po measured upto 24 hrs by LC-MS/MS analysis; assay type: ADME, organism-based; conditions: in vivo
Mus musculus [26] = experiment: Antisepsis effect in LPS-induced sepsis C57BL/6J mouse model assessed as protection by measuring mouse survival at 10 mg/kg, ip measured at 48 hrs relative to control; assay type: functional, organism-based
Mus musculus [27] = experiment: Antisepsis effect in LPS-induced sepsis C57BL/6J mouse model assessed as protection by measuring mouse survival at 10 mg/kg, ip measured after 7 days relative to control; assay type: functional, organism-based; conditions: time 7.0 day
Mus musculus [28] = experiment: Antisepsis effect in LPS-induced sepsis C57BL/6J mouse model assessed as decrease in serum TNFalpha level at 10 mg/kg, ip measured after 7 days by ELISA; assay type: functional, organism-based; conditions: time 7.0 day
Mus musculus [29] = experiment: Antisepsis effect in LPS-induced sepsis C57BL/6J mouse model assessed as decrease in serum IL-1beta level at 10 mg/kg, ip measured after 7 days by ELISA; assay type: functional, organism-based; conditions: time 7.0 day
Mus musculus [30] = experiment: Antisepsis effect in LPS-induced sepsis C57BL/6J mouse model assessed as decrease in serum CXCL-12 level at 10 mg/kg, ip measured after 7 days by ELISA; assay type: functional, organism-based; conditions: time 7.0 day
Mus musculus [31] = experiment: Antisepsis effect in LPS-induced sepsis C57BL/6J mouse model assessed as decrease in serum IL-6 level at 10 mg/kg, ip measured after 7 days by ELISA; assay type: functional, organism-based; conditions: time 7.0 day
Mus musculus [32] = experiment: Antisepsis effect in LPS-induced sepsis C57BL/6J mouse model assessed as decrease in serum IFN-gamma level at 10 mg/kg, ip measured after 7 days by ELISA; assay type: functional, organism-based; conditions: time 7.0 day
Mus musculus [33] = experiment: Antisepsis effect in LPS-induced sepsis C57BL/6J mouse model assessed as prevention of liver injury by measuring decrease in serum AST level at 10 mg/kg, ip measured after 7 days by biochemical assay; assay type: functional, organism-based; conditions: time 7.0 day
Mus musculus [34] = experiment: Antisepsis effect in LPS-induced sepsis C57BL/6J mouse model assessed as prevention of liver injury by measuring decrease in serum ALT level at 10 mg/kg, ip measured after 7 days by biochemical assay; assay type: functional, organism-based; conditions: time 7.0 day
Mus musculus [35] = experiment: Antisepsis effect in LPS-induced sepsis C57BL/6J mouse model assessed as prevention of liver injury by measuring decrease in serum AKP level at 10 mg/kg, ip measured after 7 days by biochemical assay; assay type: functional, organism-based; conditions: time 7.0 day
Mus musculus [36] = experiment: Antisepsis effect in LPS-induced sepsis C57BL/6J mouse model assessed as prevention of necrosis in liver tissue at 10 mg/kg, ip measured after 7 days by hematoxylin and eosin staining based assay; assay type: functional, organism-based; conditions: time 7.0 day
Mus musculus [37] = experiment: Antisepsis effect in LPS-induced sepsis C57BL/6J mouse model assessed as prevention of infiltration of inflammatory cells at 10 mg/kg, ip measured after 7 days by immunohistochemistry staining of F4/80 imaging based assay; assay type: functional, organism-based; conditions: time 7.0 day
Mus musculus [38] = experiment: Inhibition of noncanonical NF-kappaB signaling pathway LPS-induced sepsis C57BL/6J mouse model assessed as decrease in p52 protein level at 10 mg/kg, ip measured after 7 days by immunoblotting analysis; assay type: functional, organism-based; conditions: time 7.0 day
Mus musculus [39] = experiment: Inhibition of noncanonical NF-kappaB signaling pathway LPS-induced sepsis C57BL/6J mouse model assessed as increase in p100 protein level at 10 mg/kg, ip measured after 7 days by immunoblotting analysis; assay type: functional, organism-based; conditions: time 7.0 day
Mus musculus [40] = experiment: Antisepsis effect in LPS-induced sepsis C57BL/6J mouse model assessed as prevention of lung injury at 10 mg/kg, ip measured after 7 days by hematoxylin and eosin staining based assay; assay type: functional, organism-based; conditions: time 7.0 day
Mus musculus [41] = experiment: Antisepsis effect in LPS-induced sepsis C57BL/6J mouse model assessed as prevention of kidney injury at 10 mg/kg, ip measured after 7 days by hematoxylin and eosin staining based assay; assay type: functional, organism-based; conditions: time 7.0 day
Mus musculus [42] = experiment: Antisepsis effect in LPS-induced sepsis C57BL/6J mouse model assessed as prevention of tubular injury at 10 mg/kg, ip measured after 7 days by hematoxylin and eosin staining based assay; assay type: functional, organism-based; conditions: time 7.0 day

T1 sequence (Q99558 whole entry): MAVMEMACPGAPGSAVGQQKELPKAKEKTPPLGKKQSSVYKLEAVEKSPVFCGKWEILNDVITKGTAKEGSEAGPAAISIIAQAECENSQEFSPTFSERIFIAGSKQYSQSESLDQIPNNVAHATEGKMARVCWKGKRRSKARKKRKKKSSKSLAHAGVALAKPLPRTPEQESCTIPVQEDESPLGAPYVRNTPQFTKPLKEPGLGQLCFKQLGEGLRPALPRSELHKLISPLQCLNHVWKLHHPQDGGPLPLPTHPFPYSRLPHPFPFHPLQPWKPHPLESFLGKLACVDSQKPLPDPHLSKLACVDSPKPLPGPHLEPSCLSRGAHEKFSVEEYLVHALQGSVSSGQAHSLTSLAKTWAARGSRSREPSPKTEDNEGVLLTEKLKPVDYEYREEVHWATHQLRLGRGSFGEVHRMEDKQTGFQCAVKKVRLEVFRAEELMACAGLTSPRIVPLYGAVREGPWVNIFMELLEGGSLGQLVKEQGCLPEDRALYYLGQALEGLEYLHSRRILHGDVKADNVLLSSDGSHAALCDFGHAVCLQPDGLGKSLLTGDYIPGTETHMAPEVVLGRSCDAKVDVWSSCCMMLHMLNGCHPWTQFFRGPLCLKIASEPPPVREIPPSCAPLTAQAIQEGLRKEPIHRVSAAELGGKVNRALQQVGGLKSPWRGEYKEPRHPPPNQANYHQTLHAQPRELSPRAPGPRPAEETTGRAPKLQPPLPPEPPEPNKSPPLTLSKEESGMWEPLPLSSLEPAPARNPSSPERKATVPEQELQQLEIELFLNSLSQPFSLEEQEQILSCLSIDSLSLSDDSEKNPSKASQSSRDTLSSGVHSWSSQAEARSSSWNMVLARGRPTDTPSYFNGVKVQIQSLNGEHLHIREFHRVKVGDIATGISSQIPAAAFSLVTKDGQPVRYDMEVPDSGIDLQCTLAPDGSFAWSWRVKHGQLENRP

`COc1cc(Nc2nccc(N3CCCn4nc(C#C[C@@](C)(O)c5nccs5)cc43)n2)cc(OC)c1` showed an IC50 [1] of 0.00127 µM, an IC50 [2] of 1.19 µM and an IC50 (Macrophage) of 78.1 µM. For the same compound, the Activity (RAW264.7 [3]) was “Non-Toxic”, the Activity (COS-7 [4]) was “Non-Toxic” and the Activity (RAW264.7 [5]) was “Non-Toxic”. For the same compound, the Activity (COS-7 [6]) was “Non-Toxic”, the IC50 [7] was 288 µM and the IC50 [8] was 541 µM. For the same compound, the Activity (RAW264.7 [9]) was “Active”, the Activity (RAW264.7 [10]) was “Active” and the Activity (RAW264.7 [11]) was “Active”. It also gave a half-life at 1 µM [12] of 19.5 min, a half-life at 1 µM [13] of 25.9 min and a microsomal CLint at 1 µM [14] of 71 µL/min/mg. The microsomal CLint at 1 µM [15] was 53.6 µL/min/mg, the AUC(0-t) at 24 h [16] was 3020 ng·h/mL and the AUC(0-inf) [17] was 3020 ng·h/mL. For the same compound, the half-life [18] was 44.5 min, the C0 at 24 h [19] was 5060 ng/mL and the clearance [20] was 56.2 mL/min/kg. It also gave an AUC(0-t) at 24 h [21] of 2520 ng·h/mL, an AUC(0-inf) [22] of 2550 ng·h/mL and a half-life [23] of 136 min. The Cmax [24] was 1280 ng/mL, the Tmax [25] was 30 min and the Activity (Mus musculus [26]) was “Active”. For the same compound, the Activity (Mus musculus [27]) was “Active”, the Activity (Mus musculus [28]) was “Active” and the Activity (Mus musculus [29]) was “Active”. For the same compound, the Activity (Mus musculus [30]) was “Active”, the Activity (Mus musculus [31]) was “Active” and the Activity (Mus musculus [32]) was “Active”. The Activity (Mus musculus [33]) was “Active”, the Activity (Mus musculus [34]) was “Active” and the Activity (Mus musculus [35]) was “Active”. The Activity (Mus musculus [36]) was “Active”, the Activity (Mus musculus [37]) was “Active” and the Activity (Mus musculus [38]) was “Active”. The Activity (Mus musculus [39]) was “Active”, the Activity (Mus musculus [40]) was “Active” and the Activity (Mus musculus [41]) was “Active”. For the same compound, the Activity (Mus musculus [42]) was “Active”.
